Results taken from patent US9395368B2, “Methods, agents and peptides for inducing an immune response to matrix metalloproteinase-2 expressing tumors” (New York University, priority 2010, dated 2016).

System: MMP-2-specific CD4+ T cell clones
Assay: Epitope specificity of MMP-2-specific CD4+ T cell clones with individual peptides (ELISA)
Assay type: cell-based, human
Settings: individual peptides 2 μM; TNFα, IL-4 and IFNγ production
Experimental: (A) MMP-2-specific CD4^+ T cell clones were generated and characterized as described in Experimental Procedures. Clone HD9828/52 is shown as a representative example. Epitope specificities were assessed after overnight stimulation with individual peptides (2 μM). IFNγ, TNFα and IL-4 release was measured by ELISA. (B) All MMP-2-specific CD4^+ T cell clones were characterized by staining for CD4, CD8 and TCR Vβ chain expression. Clone HD9828/52 is shown as a representative example. (C) To establish HLA class-II isotype restriction, CD4^+ T cell clones were stimulated by corresponding peptides in the absence or presence of blocking mAb (10 μg/mL) for HLA-DP, HLA-DQ or HLA-DR and IFNγ release was measured by ELISA. (D) Purified CD4^+/CD25^− cells were stimulated for 12 days by autologous DCs incubated with MMP-2 protein (10 μM) and subsequently washed. MMP-2-specific CD4^+ T cells were detected by intracellular staining of IFNγ, TNFα and IL-4 after 6 hours of stimulation with MMP-2 peptide pool (2 μM). Numbers in the upper right quadrants are the percentages of each population.
All 19 MMP-2-specific CD4^+ T cell clones were characterized for epitope specificity by testing clone responses to every peptide separately. TCR Vβ expression was assessed by surface staining HLA class-II isotype restriction was determined by using blocking mAb to HLA-DP, -DQ and -DR. Results listed for the T cell clone HD9828/MC1/52 are shown in FIG. 1 and FIG. 11, and are highlighted in bold italics.
T Cell culture, stimulation and priming. Peripheral blood mononuclear cells (PBMCs) were purified from healthy donor-(HD) or cord blood donor-(CB) derived buffy coats (New York Blood Center) by Ficoll-Paque Plus (GE Healthcare) centrifugation. CD4^+/CD25^− cells were enriched (>90%) by magnetic cell sorting (Miltenyi Biotec) and primed/stimulated for 12-15 days either with irradiated (35Gy) autologous CD4^− cells or with autologous mature DCs in IMDM (GIBCO) supplemented with 1 mM HEPES (Life Technologies), 2 mM L-glutamine (Sigma), […] (Sigma) and 5% heat inactivated pooled human serum (PHS; Valley Biomedical) in the presence of rhIL-2 (10 UI/mL) and IL7 (5 ng/mL) (R&D Systems). Antigen presenting cells (CD4^− cells or DCs) were loaded either with peptides (2 μM) or with the MMP-2 protein (10 μg/mL) for 2 and 5 h, respectively. DCs were matured using the TLR3 agonist poly(I:C) at 5 μg/mL/10^6 DCs (Amersham). To generate T cell clones, we originally relied on our published methodology (Godefroy et al., 2006; Godefroy et al., 2007; the entire contents of each of which is incorporated herein by reference), involving enrichment of IFNγ-secreting cells upon short-term culture and peptide stimulation to generate MMP-2 responsive clones. Briefly, CD4^+ T cells were stimulated by CD4^− cells irradiated and pulsed with peptides for 12 days in the presence of rhIL-2 and rhIL-7. CD4^+ T cells were then restimulated with peptides for 3 hours before capturing IFNγ-secreting specific cells using a bispecific antibody coating T cells and capturing produced IFNγ. Positive cells were purified magnetically before being cloned. Although MMP-2-specific cells could be isolated, it was realized that IFNγ secretion was marginal compared to their secretion of IL-4 and TNFα. IFNγ-secreting cells in response to MMP-2 peptide pool were enriched by cytokine-guided magnetic cell sorting (Miltenyi Biotec) as described above and cloned the following day by limiting dilution in the presence of irradiated allogeneic PBMCs, 1 μg/mL phytohemagglutinin-L (Sigma) and 150 UI/mL rhIL-2. Tumor infiltrating lymphocytes (TILs) were provided by Pr. F. Jotereau and B. Dréno. They were obtained from tumor-invaded lymph nodes of melanoma patients (stage Mb) and expanded ex vivo. These patients received autologous TILs and IL-2 infusions in a clinical trial (Labarriere et al., 2002). […]

Sequence | recognition by CD4+ T cell clones
TGPLRALCLLGCLLSHAAAA (listed as Homo sapiens) [P11-30] | recognized
FFKGAYYLKLENQSLKSVKF (listed as Homo sapiens) [P631-650] | recognized
GFPKLIADAWNAIPDNLDAV (listed as Homo sapiens) [P601-620] | recognized
VDLQGGGHSYFFKGAYYLKL (listed as Homo sapiens) [P621-640] | recognized
MEALMARGALTGPLRALCLL (listed as Homo sapiens) [P1-20] | recognized
GCLLSHAAAAPSPIIKFPGD (listed as Homo sapiens) [P21-40] | recognized
RIHDGEADIMINFGRWEHGD (listed as Homo sapiens) [P161-180] | recognized
AFNWSKNKKTYIFAGDKFWR (listed as Homo sapiens) [P571-590] | recognized
GYPKPLTSLGLPPDVQRVDA (listed as Homo sapiens) [P551-570] | recognized
ESCTSAGRSDGKMWCATTAN (listed as Homo sapiens) [P361-380] | recognized
VAPKTDKELAVQYLNTFYGC (listed as Homo sapiens) [P41-60] | recognized
